PMC10952710 (2023)

Tests used:
[1] = system: synthetic neomycin-sensing riboswitch, 2FA-labeled (RNA, riboswitch, 2-fluoroadenine at 16, 17 and 24) GGCUGCUUGUCCUUUAAUGGUCCAGCC; assay: ITC; conditions: 200 mM NaCl, 10 mM MgCl2, 20 mM Na-cacodylate, 1 mM spermidine, pH 6.8, 37 °C, one-site model
[2] = system: synthetic neomycin-sensing riboswitch, 2FA-labeled (RNA, riboswitch, 2-fluoroadenine at 16, 17 and 24) GGCUGCUUGUCCUUUAAUGGUCCAGCC; assay: 19F NMR titration; conditions: 303 K; saturating ligand; 215-1200 µM RNA, 1-1.5 equivalents ligand

A KD ([1]; 10 µM RNA, 100 µM ligand) of 0.356 ± 0.019 µM was found for `NC[C@H]1O[C@H](O[C@H]2[C@H](O[C@@H]3O[C@H](CO)[C@@H](O)[C@H]3O)[C@@H](O)[C@H](N)C[C@@H]2N)[C@H](N)[C@@H](O)[C@@H]1O` in this work.

For `NC[C@@H]1O[C@H](O[C@H]2[C@@H](O)[C@H](O[C@@H]3[C@@H](O)[C@H](N)C[C@H](N)[C@H]3O[C@H]3O[C@H](CN)[C@@H](O)[C@H](O)[C@H]3N)O[C@@H]2CO)[C@H](N)[C@@H](O)[C@@H]1O`, the binding [2] was “yes”.

A KD ([1]; 30 µM RNA, 300 µM ligand) of 5.7 ± 3.8 µM was found for `NC[C@@H]1O[C@H](O[C@H]2[C@@H](O)[C@H](O[C@@H]3[C@@H](O)[C@H](N)C[C@H](N)[C@H]3O[C@H]3O[C@H](CO)[C@@H](O)[C@H](O)[C@H]3N)O[C@@H]2CO)[C@H](N)[C@@H](O)[C@@H]1O` in this work.
